Experimental data taken from the supplement of paper PMC4862054.
Values joined by “and” are separate entries in the source; they are usually repeats but may differ in a detail not shown here. Equal entries are not always repeated.

Assays:
MCF-10A = test: drug sensitivity score (DSS), CellTiter-Glo (DSS (AUC-based score)); higher = stronger drug effect (viability inhibition or cytotoxicity); extreme values may be limits of the assay; conditions: incubation time: 72 h
Procedure, shortened: (§1)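 Breast cancer cells were seeded into 384-well plates containing compound at 5 concentrations in 10-fold steps over a compound-specific 10,000-fold range and incubated 72 h. After CellTox Green and CellTiter-Glo readings, each plate was normalised to 0.1 % DMSO and a positive kill control. The drug sensitivity score rests on the area under the fitted dose-response curve.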

HDQ-P1 [1] = test: as above; conditions: incubation time: 72 h
Procedure, shortened: as §1

CAL-51 [2] = test: as above; conditions: incubation time: 72 h
Procedure, shortened: as §1

SK-BR-3 [3] = test: as above; conditions: incubation time: 72 h
Procedure, shortened: as §1

MDA-MB-453 [4] = test: as above; conditions: incubation time: 72 h
Procedure, shortened: as §1

MDA-MB-436 [5] = test: as above; conditions: incubation time: 72 h
Procedure, shortened: as §1

CAL-148 [6] = test: as above; conditions: incubation time: 72 h
Procedure, shortened: as §1

MDA-MB-453 [7] = test: normalised viability (% of control), CellTiter-Blue; higher = more viable cells (about 100 = DMSO control); conditions: incubation time: 72 h
Procedure, shortened: (§2)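 Each entry is normalised viability at a single listed concentration within a series. It comes from breast cancer cell lines incubated 72 h with compound in 384-well plates, then measured with CellTiter-Blue fluorescence at 560/590 nm. Every plate was normalised between vehicle (100) and a positive kill control (0).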

CAL-85-1 [8] = test: as above; conditions: incubation time: 72 h
Procedure, shortened: as §2

BT-549 [9] = test: as above; conditions: incubation time: 72 h
Procedure, shortened: as §2

MDA-MB-468 [10] = test: as above; conditions: incubation time: 72 h
Procedure, shortened: as §2

HCC1599 = test: normalised viability (% of control), CellTiter-Blue; higher = more viable cells (about 100 = DMSO control); conditions: 100 nM; incubation time: 72 h
Description: (§3)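 DSRT, CellTiter-Blue viability, 72 h incubation. Signal is normalised to DMSO and benzethonium chloride controls. Value is the normalised response at dose 3.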

HDQ-P1 [11] = test: as above; conditions: 10 nM; incubation time: 72 h
Description: as §3

CAL-51 [12] = test: as above; conditions: 10 nM; incubation time: 72 h
Description: as §3

Hs578T = test: as above; conditions: 100 nM; incubation time: 72 h
Description: as §3

DU-4475 = test: as above; conditions: 10 nM; incubation time: 72 h
Description: as §3

HCC1937 = test: as above; conditions: 100 nM; incubation time: 72 h
Description: as §3

SK-BR-3 [13] = test: as above; conditions: 100 nM; incubation time: 72 h
Description: as §3

MDA-MB-453 [14] = test: as above; conditions: 10 nM; incubation time: 72 h
Description: as §3

MFM-223 = test: as above; conditions: 100 nM; incubation time: 72 h
Description: as §3

MDA-MB-436 [15] = test: as above; conditions: 100 nM; incubation time: 72 h
Description: as §3

CAL-85-1 [16] = test: as above; conditions: 10 nM; incubation time: 72 h
Description: as §3

BT-549 [17] = test: as above; conditions: 100 nM; incubation time: 72 h
Description: as §3

HCC1143 = test: as above; conditions: 100 nM; incubation time: 72 h
Description: as §3

CAL-148 [18] = test: as above; conditions: 10 nM; incubation time: 72 h
Description: as §3

BT-474 = test: as above; conditions: 100 nM; incubation time: 72 h
Description: as §3

MDA-MB-231 = test: as above; conditions: 100 nM; incubation time: 72 h
Description: as §3

CAL-120 = test: as above; conditions: 100 nM; incubation time: 72 h
Description: as §3

MDA-MB-468 [19] = test: as above; conditions: 100 nM; incubation time: 72 h
Description: as §3

| SMILES | drug sensitivity score (MCF-10A) | drug sensitivity score (HDQ-P1 [1]) | drug sensitivity score (CAL-51 [2]) | drug sensitivity score (SK-BR-3 [3]) | drug sensitivity score (MDA-MB-453 [4]) | drug sensitivity score (MDA-MB-436 [5]) | drug sensitivity score (CAL-148 [6]) | normalised viability (MDA-MB-453 [7]; 3 nM) | normalised viability (MDA-MB-453 [7]; 30 nM) | normalised viability (MDA-MB-453 [7]; 100 nM) | normalised viability (CAL-85-1 [8]; 3 nM) | normalised viability (CAL-85-1 [8]; 30 nM) | normalised viability (CAL-85-1 [8]; 100 nM) | normalised viability (BT-549 [9]; 10 nM) | normalised viability (BT-549 [9]; 1000 nM) | normalised viability (BT-549 [9]; 10000 nM) | normalised viability (MDA-MB-468 [10]; 10 nM) | normalised viability (MDA-MB-468 [10]; 1000 nM) | normalised viability (MDA-MB-468 [10]; 10000 nM) | normalised viability (HCC1599) [%] | normalised viability (HDQ-P1 [11]) | normalised viability (CAL-51 [12]) | normalised viability (Hs578T) | normalised viability (DU-4475) | normalised viability (HCC1937) | normalised viability (SK-BR-3 [13]) | normalised viability (MDA-MB-453 [14]) | normalised viability (MFM-223) | normalised viability (MDA-MB-436 [15]) | normalised viability (CAL-85-1 [16]) | normalised viability (BT-549 [17]) | normalised viability (HCC1143) | normalised viability (CAL-148 [18]) | normalised viability (BT-474) | normalised viability (MDA-MB-231) | normalised viability (CAL-120) [%] | normalised viability (MDA-MB-468 [19]) |
| --- | --- | --- | --- | --- | --- | --- | --- | --- | --- | --- | --- | --- | --- | --- | --- | --- | --- | --- | --- | --- | --- | --- | --- | --- | --- | --- | --- | --- | --- | --- | --- | --- | --- | --- | --- | --- | --- |
| COc1cc(O)c2c(c1)/C=C/C[C@H](O)[C@H](O)C(=O)/C=C\C[C@H](C)OC2=O [(5Z)-7-Oxozeaenol] | 9.62 | 7.51 | 4.7 | 2.34 | 1.38 | 7.08 | 7.16 | – | – | – | – | – | – | – | – | – | – | – | – | – | – | – | – | – | – | – | – | – | – | – | – | – | – | – | – | – | – |
| CCOC(=O)CCNc1cc(N2CCc3ccccc3CC2)nc(-c2ccccn2)n1 [GSK-J4] | 12.1 | 10.5 | 21.5 | 10.7 | 17 | 15.7 | 17.3 | – | – | – | – | – | – | – | – | – | – | – | – | – | – | – | – | – | – | – | – | – | – | – | – | – | – | – | – | – | – |
| COC(=O)c1ccc2c(c1)NC(=O)/C2=C(\Nc1ccc(N(C)C(=O)CN2CCN(C)CC2)cc1)c1ccccc1 [BIBF 1120] | – | – | – | – | – | – | – | 112% | 101% | 104% | 97.1% | 98.3% | 99.6% | 105% | 111% | 16.4% | 108% | 112% | 17.6% | 91.3 | 122% | 104% | 104% | 114% | 115% | 91.6% | 101% | 79.1% | 98.9% | 99.9% | 111% | 88.2% | 100% | 130% | 104% | 95.4 | 111% |
| CCc1c2c(nc3ccc(OC(=O)N4CCC(N5CCCCC5)CC4)cc13)-c1cc3c(c(=O)n1C2)COC(=O)[C@]3(O)CC [Irinotecan] | 1.93 | 0 | 3.68 | 4.28 | 0 | 7.54 | 7.67 | 101% and 124% | 85.5% and 96.2% | 99.8% and 110% | 94.6% and 96.1% | 78.8% and 92.5% | 86.4% and 103% | 80.8% and 86% | 82.2% and 84.3% | 71% and 62% | 106% and 105% | 76% and 87.3% | 35.5% and 42.8% | – | 102% and 126% | 99.2% and 118% | 97.9% and 90.4% | 115% and 123% | 93.2% and 84.8% | 80.2% and 85.2% | 102% and 115% | 93.8% and 94.5% | 89.2% and 99.7% | 90.9% and 99.3% | 91.5% and 90% | 89.1% and 112% | 86% and 102% | 110% and 106% | 90.9% and 103% | – | 102% and 108% |
| Cc1cc(Nc2cc(CN3CCOCC3)c3nc(C)c(Cc4ccc(Cl)cc4F)n3n2)n[nH]1 [Gandotinib] | 3.4 | 5.01 | 9.68 | 3.64 | 0 | 4.83 | 0 | – | – | – | – | – | – | – | – | – | – | – | – | – | – | – | – | – | – | – | – | – | – | – | – | – | – | – | – | – | – |
| CCn1c(-c2nonc2N)nc2cnc(Oc3cccc(NC(=O)c4ccc(OCCN5CCOCC5)cc4)c3)cc21 | 6.73 | 1.87 | 4.84 | 4.64 | 0 | 1.31 | 2.07 | – | – | – | – | – | – | – | – | – | – | – | – | – | – | – | – | – | – | – | – | – | – | – | – | – | – | – | – | – | – |
| COC(=O)c1ccc2c(c1)NC(=O)/C2=C(\Nc1ccc(N(C)C(=O)CN2CCN(C)CC2)cc1)c1ccccc1 [Nintedanib] | 8.49 | 6.77 | 8.21 | 0 | 1.67 | 3.08 | 0 | – | – | – | – | – | – | – | – | – | – | – | – | – | – | – | – | – | – | – | – | – | – | – | – | – | – | – | – | – | – |
| Nc1cc(C(F)(F)F)c(-c2cc(N3CCOCC3)nc(N3CCOCC3)n2)cn1 [Buparlisib] | 9.62 | 6.14 | 7.02 | 0 | 0 | 0 | 0 | – | – | – | – | – | – | – | – | – | – | – | – | – | – | – | – | – | – | – | – | – | – | – | – | – | – | – | – | – | – |
| Nc1cc(C(F)(F)F)c(-c2cc(N3CCOCC3)nc(N3CCOCC3)n2)cn1 [BKM-120] | – | – | – | – | – | – | – | 111% | 114% | 96.7% | 95.8% | 80.2% | 92% | 78.3% | 62.5% | 10.8% | 97.7% | 78.7% | 15.3% | 70.1 | 111% | 98.5% | 96.6% | 98.3% | 112% | 76.7% | 96% | 84% | 90.2% | 86.6% | 96.8% | 86.1% | 94.9% | 115% | 83.6% | 81.3 | 99.2% |
| COc1cc2c(NC3CCN(C(C)C)CC3)nc(N3CCC(F)(F)CC3)nc2cc1OCCCN1CCCC1 [UNC0642] | 3.66 | 0.93 | 0 | 2.71 | 5.58 | 4.42 | 3.63 | – | – | – | – | – | – | – | – | – | – | – | – | – | – | – | – | – | – | – | – | – | – | – | – | – | – | – | – | – | – |
| CNC(=O)c1ccc(N2C(=S)N(c3ccc(C#N)c(C(F)(F)F)c3)C(=O)C23CCC3)cc1F [RD162] | 0 | 0 | 0 | 0 | 0 | 0 | 0 | – | – | – | – | – | – | – | – | – | – | – | – | – | – | – | – | – | – | – | – | – | – | – | – | – | – | – | – | – | – |
